In ChEMBL document CHEMBL5291721, “A preclinical secondary pharmacology resource illuminates target-adverse drug reaction associations of marketed drugs” (Nat Commun, 2023):

What was measured:
[1] = target: Voltage-gated inwardly rectifying potassium channel KCNH2 (Homo sapiens, UniProt Q12809); type: functional; conditions: read-out: AC50
[2] = target: T1, Alpha-1A adrenergic receptor (Homo sapiens, UniProt P35348); type: functional, cell-based
T1 sequence (P35348 whole entry): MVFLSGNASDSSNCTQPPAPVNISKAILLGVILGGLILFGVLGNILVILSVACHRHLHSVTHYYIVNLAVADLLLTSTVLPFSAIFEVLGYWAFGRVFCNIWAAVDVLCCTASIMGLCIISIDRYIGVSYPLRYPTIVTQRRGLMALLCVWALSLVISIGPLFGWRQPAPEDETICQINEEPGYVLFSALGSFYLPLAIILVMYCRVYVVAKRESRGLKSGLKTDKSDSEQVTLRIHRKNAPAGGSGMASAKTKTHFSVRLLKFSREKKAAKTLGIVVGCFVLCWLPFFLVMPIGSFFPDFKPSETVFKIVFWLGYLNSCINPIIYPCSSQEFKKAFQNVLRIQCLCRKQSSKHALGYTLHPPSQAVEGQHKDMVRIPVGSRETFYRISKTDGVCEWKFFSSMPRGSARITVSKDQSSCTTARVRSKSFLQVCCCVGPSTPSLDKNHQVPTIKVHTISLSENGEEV

Acetylcholinesterase = Acetylcholinesterase (Homo sapiens, UniProt P22303); type: functional
D(1A) dopamine receptor = D(1A) dopamine receptor (Homo sapiens, UniProt P21728)
D(3) dopamine receptor = D(3) dopamine receptor (Homo sapiens, UniProt P35462)
[3] = target: Gamma-aminobutyric acid receptor subunit alpha-1 (Rattus norvegicus, UniProt P62813)
[4] = target: Sodium-dependent serotonin transporter (Homo sapiens, UniProt P31645)
[5] = target: T2, Muscarinic acetylcholine receptor M1 (Homo sapiens, UniProt P11229); type: functional, cell-based
T2 sequence (P11229 whole entry): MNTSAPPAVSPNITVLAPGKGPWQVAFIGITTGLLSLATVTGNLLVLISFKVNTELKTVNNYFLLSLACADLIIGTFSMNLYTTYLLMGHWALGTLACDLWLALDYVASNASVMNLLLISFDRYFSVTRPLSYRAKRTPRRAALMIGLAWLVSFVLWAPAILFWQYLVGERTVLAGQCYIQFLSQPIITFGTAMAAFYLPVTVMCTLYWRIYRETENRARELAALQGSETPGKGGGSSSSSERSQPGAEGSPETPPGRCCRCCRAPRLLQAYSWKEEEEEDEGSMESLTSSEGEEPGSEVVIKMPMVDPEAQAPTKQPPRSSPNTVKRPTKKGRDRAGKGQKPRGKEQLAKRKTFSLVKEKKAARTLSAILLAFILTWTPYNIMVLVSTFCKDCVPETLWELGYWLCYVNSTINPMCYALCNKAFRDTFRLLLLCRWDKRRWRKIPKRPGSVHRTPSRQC

[6] = target: cGMP-inhibited 3',5'-cyclic phosphodiesterase 3A (Homo sapiens, UniProt Q14432); type: functional
[7] = target: T3, Type-1 angiotensin II receptor (Homo sapiens, UniProt P30556)
T3 sequence (P30556 whole entry): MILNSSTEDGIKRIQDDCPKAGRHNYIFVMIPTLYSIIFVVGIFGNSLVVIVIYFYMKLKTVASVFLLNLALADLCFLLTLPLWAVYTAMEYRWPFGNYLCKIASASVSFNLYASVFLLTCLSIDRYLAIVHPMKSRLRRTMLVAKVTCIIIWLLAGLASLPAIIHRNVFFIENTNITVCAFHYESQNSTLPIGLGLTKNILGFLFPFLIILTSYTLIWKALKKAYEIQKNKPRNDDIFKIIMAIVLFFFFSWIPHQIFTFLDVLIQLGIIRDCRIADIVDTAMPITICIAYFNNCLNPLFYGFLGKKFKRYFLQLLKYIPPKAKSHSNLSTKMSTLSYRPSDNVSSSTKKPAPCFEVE

[8] = target: Kappa-type opioid receptor (Homo sapiens, UniProt P41145)
Also: assay procedure not described here.

Sequence of D(1A) dopamine receptor (P21728 whole entry): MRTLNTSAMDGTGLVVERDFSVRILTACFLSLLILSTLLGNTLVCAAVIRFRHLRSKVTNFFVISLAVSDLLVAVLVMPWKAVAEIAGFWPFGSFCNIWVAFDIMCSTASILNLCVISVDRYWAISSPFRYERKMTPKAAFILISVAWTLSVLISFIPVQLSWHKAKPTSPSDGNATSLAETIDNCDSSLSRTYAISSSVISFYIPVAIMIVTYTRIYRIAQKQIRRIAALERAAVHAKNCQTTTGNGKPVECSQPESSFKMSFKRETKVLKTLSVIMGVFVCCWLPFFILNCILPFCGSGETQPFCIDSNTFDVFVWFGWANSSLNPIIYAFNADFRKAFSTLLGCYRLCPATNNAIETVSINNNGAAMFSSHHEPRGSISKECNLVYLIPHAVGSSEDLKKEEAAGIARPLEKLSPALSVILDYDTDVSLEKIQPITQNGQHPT
Sequence of D(3) dopamine receptor (P35462 whole entry): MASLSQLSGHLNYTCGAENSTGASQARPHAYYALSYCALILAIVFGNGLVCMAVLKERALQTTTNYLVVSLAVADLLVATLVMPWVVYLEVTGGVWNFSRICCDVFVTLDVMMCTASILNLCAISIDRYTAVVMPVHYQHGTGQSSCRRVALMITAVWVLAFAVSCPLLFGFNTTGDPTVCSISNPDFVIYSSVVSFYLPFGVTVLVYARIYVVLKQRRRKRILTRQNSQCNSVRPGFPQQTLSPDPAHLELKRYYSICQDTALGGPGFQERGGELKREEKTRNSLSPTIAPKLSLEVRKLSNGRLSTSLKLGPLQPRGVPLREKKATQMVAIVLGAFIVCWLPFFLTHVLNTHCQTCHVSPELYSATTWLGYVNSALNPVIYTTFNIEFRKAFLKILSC
Sequence of Sodium-dependent serotonin transporter (P31645 whole entry): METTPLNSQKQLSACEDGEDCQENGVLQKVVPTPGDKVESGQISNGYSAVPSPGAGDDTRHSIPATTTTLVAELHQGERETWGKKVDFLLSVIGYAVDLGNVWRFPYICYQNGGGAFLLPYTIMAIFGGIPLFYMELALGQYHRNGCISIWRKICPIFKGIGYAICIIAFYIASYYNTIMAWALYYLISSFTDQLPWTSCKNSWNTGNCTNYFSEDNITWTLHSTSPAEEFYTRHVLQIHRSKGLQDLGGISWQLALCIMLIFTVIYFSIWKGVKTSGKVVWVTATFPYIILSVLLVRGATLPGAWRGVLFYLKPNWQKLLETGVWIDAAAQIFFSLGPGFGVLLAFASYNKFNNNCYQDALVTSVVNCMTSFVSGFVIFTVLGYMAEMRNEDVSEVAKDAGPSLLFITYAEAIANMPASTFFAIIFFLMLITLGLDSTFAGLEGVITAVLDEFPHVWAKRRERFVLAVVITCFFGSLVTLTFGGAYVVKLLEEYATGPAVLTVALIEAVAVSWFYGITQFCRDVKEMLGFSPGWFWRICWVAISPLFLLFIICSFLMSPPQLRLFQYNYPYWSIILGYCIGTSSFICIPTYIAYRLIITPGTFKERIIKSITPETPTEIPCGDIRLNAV
Sequence of Acetylcholinesterase (P22303 whole entry): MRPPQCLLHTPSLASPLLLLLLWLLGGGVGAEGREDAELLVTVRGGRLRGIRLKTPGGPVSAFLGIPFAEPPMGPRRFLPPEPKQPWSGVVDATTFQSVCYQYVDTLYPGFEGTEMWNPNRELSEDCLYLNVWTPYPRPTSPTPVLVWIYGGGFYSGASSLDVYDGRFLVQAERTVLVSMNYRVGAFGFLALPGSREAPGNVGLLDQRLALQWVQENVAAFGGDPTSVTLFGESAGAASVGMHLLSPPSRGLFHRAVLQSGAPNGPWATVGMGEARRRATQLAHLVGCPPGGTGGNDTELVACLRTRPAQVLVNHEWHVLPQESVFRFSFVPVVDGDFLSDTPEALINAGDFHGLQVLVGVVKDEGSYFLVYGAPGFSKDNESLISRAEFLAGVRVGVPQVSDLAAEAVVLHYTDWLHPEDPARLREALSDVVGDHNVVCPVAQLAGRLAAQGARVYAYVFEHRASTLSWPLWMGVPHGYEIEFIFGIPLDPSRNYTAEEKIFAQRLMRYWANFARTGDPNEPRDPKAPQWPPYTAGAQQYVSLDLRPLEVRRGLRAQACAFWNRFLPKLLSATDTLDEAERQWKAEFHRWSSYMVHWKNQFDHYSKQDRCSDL
Sequence of Voltage-gated inwardly rectifying potassium channel KCNH2 (Q12809 whole entry): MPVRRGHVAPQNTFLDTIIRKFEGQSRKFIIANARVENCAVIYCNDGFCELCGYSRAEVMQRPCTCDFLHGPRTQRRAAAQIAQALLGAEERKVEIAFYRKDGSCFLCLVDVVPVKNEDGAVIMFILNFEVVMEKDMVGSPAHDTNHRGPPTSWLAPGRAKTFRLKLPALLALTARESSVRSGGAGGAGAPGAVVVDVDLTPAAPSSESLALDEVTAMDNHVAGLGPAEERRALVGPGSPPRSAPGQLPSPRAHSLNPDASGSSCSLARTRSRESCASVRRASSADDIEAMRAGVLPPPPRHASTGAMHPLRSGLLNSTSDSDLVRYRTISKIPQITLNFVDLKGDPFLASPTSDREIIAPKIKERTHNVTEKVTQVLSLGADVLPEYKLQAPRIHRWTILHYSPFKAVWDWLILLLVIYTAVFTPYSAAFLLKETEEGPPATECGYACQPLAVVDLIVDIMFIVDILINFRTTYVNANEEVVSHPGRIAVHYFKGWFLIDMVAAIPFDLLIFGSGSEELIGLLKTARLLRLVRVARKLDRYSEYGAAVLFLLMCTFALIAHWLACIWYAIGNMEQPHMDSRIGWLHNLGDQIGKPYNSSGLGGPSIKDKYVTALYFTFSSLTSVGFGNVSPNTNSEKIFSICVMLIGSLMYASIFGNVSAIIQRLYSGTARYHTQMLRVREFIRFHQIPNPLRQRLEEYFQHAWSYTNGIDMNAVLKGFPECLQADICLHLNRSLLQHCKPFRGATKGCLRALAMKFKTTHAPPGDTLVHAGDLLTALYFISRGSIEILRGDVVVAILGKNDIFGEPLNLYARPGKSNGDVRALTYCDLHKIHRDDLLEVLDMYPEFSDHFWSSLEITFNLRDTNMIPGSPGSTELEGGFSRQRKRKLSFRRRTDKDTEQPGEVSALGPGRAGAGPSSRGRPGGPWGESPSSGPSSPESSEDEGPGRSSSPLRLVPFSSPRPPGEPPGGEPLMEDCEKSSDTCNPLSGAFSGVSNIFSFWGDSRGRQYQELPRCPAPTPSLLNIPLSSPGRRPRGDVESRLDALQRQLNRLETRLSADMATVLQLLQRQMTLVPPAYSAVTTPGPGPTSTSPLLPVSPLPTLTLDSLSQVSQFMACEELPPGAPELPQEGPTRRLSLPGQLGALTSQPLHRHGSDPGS
Sequence of Gamma-aminobutyric acid receptor subunit alpha-1 (P62813 whole entry): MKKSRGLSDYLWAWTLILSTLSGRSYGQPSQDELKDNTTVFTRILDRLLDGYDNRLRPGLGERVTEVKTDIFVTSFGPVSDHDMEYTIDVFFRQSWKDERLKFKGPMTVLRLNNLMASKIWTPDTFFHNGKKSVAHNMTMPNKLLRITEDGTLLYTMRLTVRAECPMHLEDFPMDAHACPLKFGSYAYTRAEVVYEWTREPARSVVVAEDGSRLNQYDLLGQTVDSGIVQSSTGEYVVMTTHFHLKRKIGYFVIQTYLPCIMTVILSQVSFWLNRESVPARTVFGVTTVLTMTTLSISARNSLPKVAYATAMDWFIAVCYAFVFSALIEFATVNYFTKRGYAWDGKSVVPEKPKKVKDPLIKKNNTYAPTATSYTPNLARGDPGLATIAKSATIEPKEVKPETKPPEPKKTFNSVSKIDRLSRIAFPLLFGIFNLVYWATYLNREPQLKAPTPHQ
Sequence of cGMP-inhibited 3',5'-cyclic phosphodiesterase 3A (Q14432 whole entry): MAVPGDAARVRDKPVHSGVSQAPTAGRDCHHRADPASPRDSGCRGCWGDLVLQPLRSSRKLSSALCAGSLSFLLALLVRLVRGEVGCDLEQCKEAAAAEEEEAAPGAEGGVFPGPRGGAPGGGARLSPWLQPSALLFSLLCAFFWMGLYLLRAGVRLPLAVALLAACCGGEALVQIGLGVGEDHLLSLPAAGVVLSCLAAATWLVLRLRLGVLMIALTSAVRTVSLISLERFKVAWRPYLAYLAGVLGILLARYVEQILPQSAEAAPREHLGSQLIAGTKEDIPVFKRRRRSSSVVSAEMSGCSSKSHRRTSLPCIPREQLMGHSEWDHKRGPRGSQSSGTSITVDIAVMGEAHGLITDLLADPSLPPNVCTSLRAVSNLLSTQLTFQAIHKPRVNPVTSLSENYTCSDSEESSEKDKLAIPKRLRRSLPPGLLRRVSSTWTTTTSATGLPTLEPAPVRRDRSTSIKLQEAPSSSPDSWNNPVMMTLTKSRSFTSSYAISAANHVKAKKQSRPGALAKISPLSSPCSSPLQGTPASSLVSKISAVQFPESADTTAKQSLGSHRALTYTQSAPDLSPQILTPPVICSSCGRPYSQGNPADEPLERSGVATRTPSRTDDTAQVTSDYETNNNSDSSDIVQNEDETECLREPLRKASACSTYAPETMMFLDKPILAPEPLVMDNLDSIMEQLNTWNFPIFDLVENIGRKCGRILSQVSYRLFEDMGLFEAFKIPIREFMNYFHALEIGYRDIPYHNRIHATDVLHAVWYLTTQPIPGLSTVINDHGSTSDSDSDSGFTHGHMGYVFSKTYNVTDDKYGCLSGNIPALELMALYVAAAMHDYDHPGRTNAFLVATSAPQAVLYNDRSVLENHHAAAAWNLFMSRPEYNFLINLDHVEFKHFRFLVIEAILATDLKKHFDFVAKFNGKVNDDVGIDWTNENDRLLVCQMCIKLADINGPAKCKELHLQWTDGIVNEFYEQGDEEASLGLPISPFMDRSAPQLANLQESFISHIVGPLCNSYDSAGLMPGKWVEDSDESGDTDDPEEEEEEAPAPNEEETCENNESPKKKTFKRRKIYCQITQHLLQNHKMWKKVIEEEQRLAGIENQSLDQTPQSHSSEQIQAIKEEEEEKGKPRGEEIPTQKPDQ

SMILES | AC50 [1] [µM] | AC50 [2] [µM] | AC50 (Acetylcholinesterase) [µM] | AC50 (D(1A) dopamine receptor) [µM] | AC50 (D(3) dopamine receptor) [µM] | AC50 [3] [µM] | AC50 [4] [µM] | AC50 [5] [µM] | AC50 [6] [µM] | AC50 [7] [µM] | AC50 [8] [µM]
CCN(CC)CCNc1ccc(CO)c2sc3ccccc3c(=O)c12 [HYCANTHONE] | 3.6 | > 30 | > 30 | > 30 | 19.5 | > 30 | 16 | 17.6 | > 30 |  | 
CN(C)CC/C=C1\c2ccccc2CSc2ccccc21 [DOTHIEPIN] | 1.5 |  |  |  |  |  |  |  |  | > 30 | 
COc1cc2nc(N3CCN(C(=O)c4ccco4)CC3)nc(N)c2cc1OC [PRAZOSIN] | 3.73 |  | 23.7 | 8.64 | > 30 | > 30 |  |  | > 30 | 7.8 | 4.94
Cc1cc(OP(=O)(O)O)c2ccccc2c1OP(=O)(O)O [MENADIOL SODIUM DIPHOSPHATE] |  | > 30 | > 30 | > 30 | > 30 | > 30 | > 30 | > 30 | > 30 |  | 
Cc1cc(NS(=O)(=O)c2ccc(N)cc2)nc(C)n1 [SULFISOMIDINE] | > 30 | > 30 | > 30 | > 30 | > 30 | > 30 | > 30 | > 30 | > 30 |  | 
CCN(CC)CCc1nc(-c2ccccc2)no1 [OXOLAMINE] | > 30 | > 30 | > 30 | > 30 |  | > 30 | > 30 | > 30 | > 30 |  | 
O=[N+]([O-])O[C@@H]1CO[C@H]2[C@@H]1OC[C@@H]2O [ISOSORBIDE MONONITRATE] | > 30 | > 30 | > 30 | > 30 | > 30 | > 30 | > 30 | > 30 | > 30 | > 30 | > 10
COc1ccccc1N1CCN(CC(O)COc2cccc3ccccc23)CC1 (stereo not given) [NAFTOPIDIL] | 0.87 |  | 26.1 | 2.08 | 0.04 | > 30 | 1.43 |  | > 30 |  | 2.2
COC1=C(OC)C(=O)C(C/C=C(\C)CC/C=C(\C)CC/C=C(\C)CC/C=C(\C)CC/C=C(\C)CC/C=C(\C)CC/C=C(\C)CC/C=C(\C)CC/C=C(\C)CCC=C(C)C)=C(C)C1=O [UBIDECARENONE] | > 30 | > 30 | > 30 | > 30 | > 30 | > 30 | > 30 | > 30 | > 30 |  | > 30
Cc1cc(C)c(NC(=O)CN(CC(=O)O)CC(=O)O)c(C)c1Br [MEBROFENIN] | > 30 |  | > 30 | > 30 | > 30 | > 30 | > 30 |  | > 30 |  | > 30
CC[C@H]1CN2CCc3cc(OC)c(OC)cc3[C@@H]2C[C@@H]1C[C@H]1NCCc2cc(OC)c(OC)cc21 [EMETINE] |  |  | > 30 | 15.7 | > 30 | > 30 |  |  | > 30 | > 30 | > 30
CCC(CC)(CC(=O)Nc1cccc(/C=C/c2nc(C3CCC3)cs2)c1)C(=O)O | > 30 | > 10 | > 30 | > 30 | > 30 | > 30 | > 30 | > 3 | > 30 | > 30 | 
O=c1[nH]c(=O)n(C2CCCO2)cc1F (stereo not given) [TEGAFUR] | > 30 | > 30 | > 30 | > 30 |  | > 30 |  |  | > 30 |  | 
Cc1oc(=O)oc1CN1CCN(c2cc3c(cc2F)c(=O)c(C(=O)O)c2n3C(C)S2)CC1 (stereo not given) [PRULIFLOXACIN] | > 30 |  | > 30 | > 30 | > 30 | > 30 | > 30 |  | > 30 |  | > 30
COc1ccc(C(=O)Nc2ccccc2CCC2CCCCN2C)cc1 (stereo not given) [ENCAINIDE] |  | > 30 | > 30 | 26.9 | > 30 | > 30 | > 30 | > 30 | > 30 | > 30 | 3.6
NC(=O)C[C@H](N)C(=O)O [ASPARAGINE] |  | > 30 | > 30 | > 30 | > 30 | > 30 | > 30 | > 30 | > 30 |  | 
CCCCCNC(=N)N/N=C/c1c[nH]c2ccc(OC)cc12 [TEGASEROD] | 4.8 | > 3 | > 30 | 0.73 | 5.62 | > 30 | 2.57 | > 3 | > 30 | 1.8 | 4.9
C=CCCCCCCCCC(=O)O [UNDECYLENIC ACID] |  |  | > 30 | > 30 | > 30 | > 30 | > 30 |  | > 30 |  | 
Clc1cc(Cl)c(OCC#CI)cc1Cl [HALOPROGIN] | 9.85 | > 30 | > 30 |  | 1.16 | > 30 |  |  | > 30 |  | 
C[S+](CC[C@H](N)C(=O)[O-])C[C@H]1O[C@@H](n2cnc3c(N)ncnc32)[C@H](O)[C@@H]1O (stereo not given in full) [ADEMETIONINE] |  | > 30 | > 30 | > 30 | > 30 | > 30 | > 30 | > 30 | > 30 |  | 
CN(C)CCC=C1c2ccccc2C=Cc2ccccc21 [CYCLOBENZAPRINE] |  |  |  |  |  |  |  |  |  | > 30 | 
CC(C)COC(=O)OCN1C(=O)CN(CCN2CC(=O)N(COC(=O)OCC(C)C)C(=O)C2)CC1=O [SOBUZOXANE] | > 30 | > 30 | > 30 | > 30 | > 30 | > 30 | > 30 | > 30 | > 30 |  | 
CC(C)(C)C(=O)OCOC(=O)[C@@H]1N2C(=O)[C@@H](NC(=O)[C@H](N)c3ccccc3)[C@H]2SC1(C)C [PIVAMPICILLIN] | > 30 | > 30 | > 30 | > 30 | > 30 | > 30 | > 30 | 23 | > 30 |  | 
CCC(C)(C)c1ccc(CC(C)CN2C[C@@H](C)O[C@@H](C)C2)cc1 (stereo not given in full) [AMOROLFINE] | 11 | > 30 | > 30 | > 30 | 22 | > 30 | > 30 | 10.8 | > 30 |  | 
Cc1ccccc1OCC(O)CO (stereo not given) [MEPHENESIN] | > 30 | > 30 | > 30 | > 30 | > 30 | > 10 | > 30 | > 30 | > 30 |  | 
CN(C)CCc1c[nH]c2ccc(C[C@H]3COC(=O)N3)cc12 [ZOLMITRIPTAN] | > 30 |  |  |  |  |  |  |  |  | > 30 | > 30
Clc1ccc(C(OCCN2CCCCC2)c2ccccc2)cc1 (stereo not given) [CLOPERASTINE] | 0.2 | > 30 | > 30 | 5.96 | 1.05 | > 30 | 15.4 | 0.551 | > 30 |  | 
